Results as given in patent publication US20230242499A1, “COMPOUND OR SALT THEREOF, COMPOSITION, CHEMILU[…], METHOD FOR MEASURING CHEMILU[…], REAGENT, REAGENT KIT, AND METHOD FOR ASSAYING ANALYTE” (SYSMEX CORPORATION, priority 2022, published 2023).

Experiments:
alkaline phosphatase = experiment: Test Example 2: chemiluminescence intensity versus amount of alkaline phosphatase, limit of detection; format: biochemical; settings: 42° C., 5 minutes incubation
Experimental: A solution of 1,2-dioxetane derivative (Examples 1 to 4) in dimethyl sulfoxide was added to 155 μL of the reaction liquid, and the mixture was kept at 42° C. for one hour. Twenty μL of a solution containing alkaline phosphatase was added, the mixture was incubated at 42° C. for 5 minutes, and then the chemiluminescence intensity was measured. The reaction liquid used herein was a 2: 1 mixture of a buffer solution (pH 9.6) that contains magnesium chloride and Sapphire-II™ Enhancer (from Thermo Fischer Scientific Inc.), and HISCL R4 reagent (from Sysmex Corporation). In Example 3, two types of sample were prepared, a sample (S(+)) with Sapphire-II™ Enhancer added thereto, and a sample […] without such additive.

[1] = Test Example 3: maximum emission wavelength by spectrofluorometer; format: physicochemical; settings: after several hours under the conditions of Test Example 1; spectrofluorometer F-7000
Experimental: After a lapse of several hours under the conditions of Test Example 1, the samples were measured with use of a spectrofluorometer F-7000 (from Hitachi High-Tech Science Corporation), to find maximum emission wavelength.

[2] = buffer pH 9.6 with magnesium chloride and Sapphire-II Enhancer added (S (+)), HISCL R4 reagent

SMILES	LOD (zmol) (alkaline phosphatase; [2])	Maximum emission wavelength (nm) [1]	LOD (zmol) (alkaline phosphatase; Sapphire-II Enhancer not added (S (−)))
COC1(c2ccc(C#Cc3ccc(C(=O)O)cc3)c(OP(=O)(O)O)c2)OOC12C1CC3CC2CC(Cl)(C3)C1 (stereo not drawn) [Example 1]	10 zmol	498 nm	–
C#Cc1ccc(C2(OC)OOC23C2CC4CC3CC(Cl)(C4)C2)cc1OP(=O)(O)O (stereo not drawn) [Example 2]	4 zmol	468 nm	–
COC1(c2ccc(C#CC(=O)O)c(OP(=O)(O)O)c2)OOC12C1CC3CC2CC(Cl)(C3)C1 (stereo not drawn) [Example 3]	7 zmol	475 nm	1 zmol
COC1(c2ccc(-c3ccc(C(=O)O)cc3)c(OP(=O)(O)O)c2)OOC12C1CC3CC2CC(Cl)(C3)C1 (stereo not drawn) [Example 4]	100 zmol	493 nm	–
